Assay: In vitro inhibition of thrombin-induced human gel-filtered platelet aggregation.

IC50 [µM] | Compound
40 | O=C(NCCc1nnn[nH]1)C1CCCN(C(=O)CCC2CCNCC2)C1 (stereo not given) [1-(3-Piperidin-4-yl-propionyl)-piperidine-3-carboxylic acid [2-(1H-tetrazol-5-yl)-ethyl]-amide]
0.8 | O=C(O)C(O)CNC(=O)[C@@H]1CCCN(C(=O)CCC2CCNCC2)C1 (stereo partly drawn) [2-Hydroxy-3-{[(R)-1-(3-piperidin-4-yl-propionyl)-piperidine-3-carbonyl]-amino}-propionic acid]
> 10 | CC(CNC(=O)C1CCCN(C(=O)CCC2CCNCC2)C1)C(=O)O (stereo not given) [2-Methyl-3-{[1-(3-piperidin-4-yl-propionyl)-piperidine-3-carbonyl]-amino}-propionic acid]
1 | COC(=O)C(CC(=O)O)NC(=O)C1CCCN(C(=O)CCC2CCNCC2)C1 (stereo not given) [2-{[1-(3-Piperidin-4-yl-propionyl)-piperidine-3-carbonyl]-amino}-succinic acid 1-methyl ester]
5 | O=C(O)CCNC(=O)C1CCCN(C(=O)OCC2CCNCC2)C1 (stereo not given) [3-(2-Carboxy-ethylcarbamoyl)-piperidine-1-carboxylic acid piperidin-4-ylmethyl ester]
28 | CN(CCC(=O)O)C(=O)C1CCCN(C(=O)CCC2CCNCC2)C1 (stereo not given) [3-{Methyl-[1-(3-piperidin-4-yl-propionyl)-piperidine-3-carbonyl]-amino}-propionic acid]
> 50 | O=C(O)C1CCCC(NC(=O)C2CCCN(C(=O)CCC3CCNCC3)C2)C1 (stereo not given) [3-{[1-(3-Piperidin-4-yl-propionyl)-piperidine-3-carbonyl]-amino}-cyclohexanecarboxylic acid]
0.02 | O=C(O)C[C@H](NC(=O)[C@@H]1CCCN(C(=O)CCC2CCNCC2)C1)c1ccc2c(c1)OCO2 [(S)-3-Benzo[1,3]dioxol-5-yl-3-{[(R)-1-(3-piperidin-4-yl-propionyl)-piperidine-3-carbonyl]-amino}-propionic acid]
0.09 | O=C(O)C[C@H](NC(=O)[C@@H]1CCCN(C(=O)CCC2CCNCC2)C1)c1cccs1 [(S)-3-{[(R)-1-(3-Piperidin-4-yl-propionyl)-piperidine-3-carbonyl]-amino}-3-thiophen-2-yl-propionic acid]
0.08 | O=C(O)C[C@@H](C#Cc1ccccc1)NC(=O)[C@@H]1CCCN(C(=O)CCC2CCNCC2)C1 [(S)-5-Phenyl-3-{[(R)-1-(3-piperidin-4-yl-propionyl)-piperidine-3-carbonyl]-amino}-pent-4-ynoic acid]
